From US20240238212A1, “LIPID COMPOUNDS AND LIPID NANOPARTICLE COMPOSITIONS” (SUZHOU ABOGEN BIOSCIENCES CO., LTD., priority 2022, published 2024)
Values joined by “and” are separate entries in the source; they are usually repeats but may differ in a detail not shown here. Equal values may be shown once. “Also recorded” adds a separate entry of the source. Read-outs that look alike come from different tables or passages of the source.

Assays:
[1] = mouse, in vivo
Procedure: (§3) LNPs were injected into mice via the tail vein (ICR female, IV, 0.5 mg mRNA/kg), then mice were anesthetized under carbon dioxide at different time (e.g., 6 h, 24 h, and 48 h) after administration and sacrificed via cardiac puncture. Liver tissue were collected immediately, and then washed by ice-cold saline. Liver samples were weighed and homogenized in ice water bath by adding pre-chilled 20% methanol-water (v/v) at 2˜8° C. with the ratio of 1:5 (w/v). The homogenized tissue samples were stored in −90˜−60° C. freezer prior to analysis.
(§4) All liver tissue homogenate samples were allowed to thaw at room temperature. An aliquot of 50 μL of sample was added with 50 μL MgCl2 (2M), then added with ACN which contains of Verapamil, 5 ng mL-1 and Glibenclamide, 50 ng mL-1 and Diclofenac, 200 ng mL^−1 and Tolbutamide, 200 ng mL^−1 for protein precipitation, then centrifuged at 13000 rpm for 8 min. Then 100 μL of supernatant was added with 100 μL water, then vortexed well. An aliquot of 5 μL of the mixture was injected into the LC-MS/MS system.

[2] = Apparent pKa of LNP formulations (TNS fluorescence assay); type: physicochemical; details: LNP formulation
Outline: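 LNPs (cationic lipid/DSPC/cholesterol/DMG-PEG 50/10/38.5/1.5 mol %) diluted to 0.1 mg/mL total lipid in citrate/phosphate/borate/NaCl buffers spanning pH 3–9 with TNS. Fluorescence (ex 325, em 435 nm) read at room temperature; pKa taken as the pH at half-maximal intensity from sigmoidal fit.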

[3] = Encapsulation efficiency of lipid nanoparticles (Quant-it Ribogreen RNA assay); type: physicochemical; details: LNP comprising the compound
Outline: (§1)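 Lipids 50:10:38.5:1.5 (cationic:DSPC:chol:PEG) in EtOH + mRNA in citrate pH 4, 1:3 vol, microfluidic, 9–30 mL/min; total lipid:mRNA ~10:1–30:1 w/w. Dialysis to DPBS, 0.2 μm filter. DLS 173° backscatter; Ribogreen encapsulation.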

[4] = Lipid nanoparticle size and polydispersity by dynamic light scattering; type: physicochemical; details: LNP comprising the compound
Outline: as §1

[5] = system: luciferase mRNA expression; experiment: Animal Study 2: luciferase mRNA LNPs i.v. in mice, optical imaging; type: in vivo; details: female Balb/c mice, 0.25 mg/kg tail vein injection, e.g. 6 hours; relative to MC3 LNP
Procedure: (§2) Lipid nanoparticles comprising compounds in the following table encapsulating mRNA encoding luciferase were systemically administered to 6-8 week old female Balb/c mice (Charles River Lab, ZheJiang) at 0.25 mg/kg dose by tail vein injection and mice blood were sampled at specific time points (e.g., 6 hours) post administration. Optical imaging was performed using the IVIS Spectrum CT device (PerkinElmer Inc., Paris, France). The luminescence level was evaluated by an ROI applied to the injection site zone (Living Image software, PerkinElmer Inc., Paris, France). In addition to the aforementioned tested groups, lipid nanoparticles comprising dilinoleylmethyl-4-dimethylaminobutyrate (other names: DLin-MC3-DMA or MC3) encapsulating luciferase mRNA were similarly administered at the same dose to age and gender comparative groups of mice as a positive control.
Characteristics of tested lipid nanoparticles, including luciferase expression levels over MC3 measured from the tested group are listed in the table below.

[6] = Lipid clearance study: lipid remaining in liver tissue by LC-MS/MS; details: mouse liver; for % Dose Remaining in Liver Tissue, 6 h: 6 h after 0.5 mg/kg i.v. bolus dose mRNA; for % Dose Remaining in Liver Tissue, 24 h: 24 h after 0.5 mg/kg i.v. bolus dose mRNA; for % Dose Remaining in Liver Tissue, 48 h: 48 h after 0.5 mg/kg i.v. bolus dose mRNA
Procedure: as §3, §4

[7] = system: human erythropoietin (hEPO) mRNA expression; experiment: Animal Study 1: hEPO mRNA LNPs i.v. in mice, serum EPO by ELISA; type: in vivo; details: female ICR mice, 0.5 mg/kg tail vein injection, blood e.g. 6 hours post administration; relative to MC3 LNP
Outline: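 Female ICR mice aged 6-8 weeks received LNP-encapsulated hEPO mRNA at 0.5 mg/kg by tail-vein injection, with MC3 LNPs as positive control. Blood was sampled at set time points (e.g., 6 hours) and serum EPO quantified by ELISA. Values are expressed relative to MC3.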

[8] = system: luciferase mRNA expression; experiment: Animal Study 2: bioluminescence of dissected organs; type: in vivo, Balb/c mice
Procedure: as §2
Radiance of heart, liver, spleen, lung, kidney, brain and bone marrow were taken at 6 h after administration. The Dissected organs were placed on a black sheet and imaged with IVIS Spectrum CT (PerkinElmer, Hopkinton, MA). To quantify bioluminescence emission signal, identical regions of interest (ROI) were positioned to encircle each organ region, the imaging signal was quantitated as Total Flux [p/s].

[9] = hEPO mRNA, cationic lipid/DSPC/cholesterol/PEG-lipid 50:10:38.5:1.5
[10] = dissected organ, 6 h after administration, 0.25 mg/kg i.v., ROI 1-3, 0.25 mg/kg

| SMILES | Apparent pKa ([2]; TNS assay (Table 3)) | Encapsulation efficiency ([3]; luciferase mRNA) [%] | Polydispersity ([4]; luciferase mRNA) | Size (nm) ([4]; luciferase mRNA) | luciferase expression over MC3 [5] | % Dose Remaining in Liver Tissue, 6 h [6] [%] | % Dose Remaining in Liver Tissue, 24 h [6] [%] | % Dose Remaining in Liver Tissue, 48 h [6] [%] | Apparent pKa ([2]; TNS assay (Table 2)) | Encapsulation efficiency ([3]; hEPO mRNA) [%] | Polydispersity ([4]; hEPO mRNA) | Size (nm) [4, 9] [nm] | EPO expression over MC3 [7] | other results |
| --- | --- | --- | --- | --- | --- | --- | --- | --- | --- | --- | --- | --- | --- | --- |
| CCCCC/C=C\C/C=C\CCCCCCCCC(CCCCCCCC/C=C\C/C=C\CCCCC)OC(=O)CCCN(C)C [MC3, dilinoleylmethyl-4-dimethylaminobutyrate] | – | – | – | – | – | – | – | – | – | – | – | – | – | % Dose Remaining in Liver Tissue, 6 h ([1]; 6 h): 69.39%; % Dose Remaining in Liver Tissue, 24 h ([1]; 24 h): 61.63%; % Dose Remaining in Liver Tissue, 48 h ([1]; 48 h): 52.47% |
| CCCCC/C=C\C/C=C\CCCCCCCC(=O)OCCCCCCN(CCCCC(COC(=O)CCCCCCC)COC(=O)CCCCCCC)C1CC(O)C1 (stereo not shown) [Compound 58] | 6.948 | 89.76 | 0.053 | 81.27 | A (≥2) | – | – | – | – | – | – | – | – | – |
| CCCCCCCCCCCOC(=O)CCCCCN(CCO)CCCOC(COC(=O)CCCCCCC)COC(=O)CCCCCCC [Compound 8] | – | – | – | – | – | 1.274 | 0.068 | 0 | 6.992 | 84.70 | 0.051 | 95.24 | C (≥0.1 and <1) | – |
| CCCCCCCCCCCCCCCCCC(=O)OCCCCCCN(CCCCC(COC(=O)CCCCCCC)COC(=O)CCCCCCC)C1CC(O)C1 (stereo not shown) [Compound 57] | 7.046 | 90.36 | 0.026 | 86.07 | A (≥2) | – | – | – | – | – | – | – | – | – |
| CCCCCCCCSSCCOC(=O)CCCCCN(CCCCCO)CCCCC(COC(=O)CCCCCCC)COC(=O)CCCCCCC [Compound 76] | 6.762 | 88.12 | 0.069 | 113.16 | B (≥1 and <2) | – | – | – | – | – | – | – | – | Total Flux [p/s], Brain [8, 10]: 4.60E+06 p/s and 4.15E+06 p/s and 5.13E+06 p/s; Total Flux [p/s], Liver [8, 10]: 1.40E+09 p/s and 9.82E+08 p/s and 1.38E+09 p/s; Total Flux [p/s], Lung [8, 10]: 5.18E+06 p/s and 5.48E+06 p/s and 4.33E+06 p/s; Total Flux [p/s], bone marrow [8, 10]: 2.09E+06 p/s and 3.07E+06 p/s and 2.94E+06 p/s; luciferase expression in organs (in words) ([8]; nanoparticle comprising the compound, organs 6 h after administration): significant transduction and luciferase expression were observed in liver and spleen; also recorded: high absolute expression in the heart, spleen, lung, kidney, brain |
| CCCCCCCCC(CCCCCC)COC(=O)CCCCCN(CCO)CCCCC(COC(=O)CCCCCCC)COC(=O)CCCCCCC (stereo not shown) [Compound 10] | – | – | – | – | – | 0.981 | 0.19 | 0.038 | 6.624 | 91.36 | 0.084 | 61.45 | B (≥1 and <2) | – |
| CCCCCCCC(=O)OCC(CCCCN(CCCCC(COC(=O)CCCCCCC)COC(=O)CCCCCCC)CCCNc1c(N(CC)CCO)c(=O)c1=O)COC(=O)CCCCCCC [Compound 60] | 6.809 | 93.20 | 0.011 | 73.37 | C (≥0.1 and <1) | – | – | – | – | – | – | – | – | – |
| CCCCCCCC(=O)OCC(COC(=O)CCCCCCC)OCCCN(CCCOC(COC(=O)CCCCCCC)COC(=O)CCCCCCC)CCN(CCO)C1CCC1 [Compound 9] | – | – | – | – | – | 1.071 | 0.089 | 0 | 6.558 | 87.29 | 0.046 | 111.6 | A (≥2) | – |
